According to patent publication US8889672B2, “Compounds, formulations, and methods of protein kinase C inhibition” (The Regents of The University of Michigan, priority 2011, dated 2014):
pEC50, pIC50: −log10 of the molar value. Like-named read-outs stand apart in the source and are kept apart here. Values belong to the molecule of their own block, whether it stands above or below them.

Key:
aPKCζ [1] = biological target: T1, aPKCζ (Homo sapiens (Human), UniProt Q05513); experiment: Kinase-Glo end-point assay, IC50 against aPKCζ; conditions: 125 ng/ml aPKCζ, 25 μM CREBtide, 0.1 μM ATP
T1 sequence (Q05513 whole entry): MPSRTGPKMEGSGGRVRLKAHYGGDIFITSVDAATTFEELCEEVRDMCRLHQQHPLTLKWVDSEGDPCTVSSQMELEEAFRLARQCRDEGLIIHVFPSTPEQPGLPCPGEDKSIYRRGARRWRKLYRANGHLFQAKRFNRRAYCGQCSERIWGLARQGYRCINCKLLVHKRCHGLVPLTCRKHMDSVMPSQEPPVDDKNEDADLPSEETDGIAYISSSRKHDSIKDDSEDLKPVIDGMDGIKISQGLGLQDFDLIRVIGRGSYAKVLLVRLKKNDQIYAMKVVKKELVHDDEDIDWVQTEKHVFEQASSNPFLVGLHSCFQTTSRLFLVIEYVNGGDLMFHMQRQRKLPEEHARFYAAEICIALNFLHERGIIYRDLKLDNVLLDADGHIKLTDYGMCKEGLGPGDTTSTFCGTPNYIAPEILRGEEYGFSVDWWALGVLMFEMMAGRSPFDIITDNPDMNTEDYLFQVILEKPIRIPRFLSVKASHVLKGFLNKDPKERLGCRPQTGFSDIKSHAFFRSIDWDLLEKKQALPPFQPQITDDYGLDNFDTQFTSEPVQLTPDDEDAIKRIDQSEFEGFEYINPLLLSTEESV

aPKCζ [2] = biological target: T1, aPKCζ; experiment: ADP Quest assay, IC50 against aPKCζ; conditions: 500 ng/ml aPKCζ, 10 μM CREBtide, 10 μM ATP
HEK293pNF-kBluc cells = experiment: TNF-induced NF-kB activation assay (luciferase reporter); type: cell-based, human; conditions: 3 h pre-treatment, 5 ng/mL TNF for 5 h
Description: HEK293pNF-kBluc cells (Panomics, Fremont, Calif., USA) were cultured according to the manufacturer's protocol. Cells were seeded onto 96-well plates in phenol red-free DMEM containing high glucose (Sigma) for 24 hours prior to assay. Cells were exposed to a candidate compound for three hours. Following treatment, cells were stimulated with 5 ng/ml TNF (R&D Systems) for five hours. Cells were then lysed with Bright-Glo™ luciferase reagent (Promega, Madison, Wis., USA) and luminescent values were obtained using a GloMax® instrument using standard protocol for Bright-Glo™ luciferase reagent. Values were background corrected and normalized to TNF treatment alone and represented as % NF-kB activity.
Human embryonic kidney cells containing a luciferase reporter gene for NF-kB activation (HEK293pNF-kBluc) were treated with candidate compounds described herein for three hours. The cells were then stimulated with TNF for five hours and the inhibition of NF-kB was evaluated. After pre-treatment with 100 nM of aPKC inhibitor, NF-kB activity was reduced by as much as 80%. […] Other compounds tested inhibited TNF-induced NF-kB activity, but to a lesser degree.

BREC monolayer [3] = experiment: TNF/VEGF permeability assay; type: cell-based, bovine; conditions: 30 min pretreatment, TNFα 1 hour then VEGF 30 min; for pEC50: read-out: EC50 for inhibition of TNF/VEGF-induced endothelial permeability
Description: BREC were plated onto 0.4 μm Transwell filters (Corning Costar, Acton, Mass., USA) and grown to confluence. Following 30 minutes of pretreatment with candidate compound, cells were subjected to 5 ng/ml TNFα (R&D Systems, Minneapolis, Minn., USA) for one hour, then 50 ng/ml VEGF (R&D Systems) for 30 minutes. Following treatments, 70 kDa Rhodamine β isothiocyanate-dextran (RITC-Dextran) was added to the apical chamber, and samples were collected from the basolateral chamber at 30 minute intervals for four hours. The rate of flux of the substrate, Po, was calculated over the four-hour time course from the following formula: Po=[FL/delta(t))VA]/(FAA)
where Po is in centimeters per second; FL is basolateral fluorescence; FA is apical fluorescence; delta(t) is change in time; A is the surface area of the filter (in square centimeters); and VA is the volume of the basolateral chamber (in cubic centimeters).

PKCα = PKCα (Homo sapiens (Human), UniProt P17252); experiment: Radio-labeled kinase assay at the Kmapp for ATP; type: biochemical
Text: (§1) PKCldiMeO and PKCζl-diCl were screened against other PKC isoforms to determine class specificity using a radio-labeled kinase assay at the Kmapp for ATP. […] PKCζl-diCl was 5-10 fold more specific towards the atypical PKC isoforms compared to the classical PKCs (α, β) and over 10-20 fold more specific compared to the novel class (δ,ε).

PKCβ = PKCβ (Homo sapiens (Human), UniProt P05771); experiment: Radio-labeled kinase assay at the Kmapp for ATP; type: biochemical
PKCβ, sequence (P05771 whole entry): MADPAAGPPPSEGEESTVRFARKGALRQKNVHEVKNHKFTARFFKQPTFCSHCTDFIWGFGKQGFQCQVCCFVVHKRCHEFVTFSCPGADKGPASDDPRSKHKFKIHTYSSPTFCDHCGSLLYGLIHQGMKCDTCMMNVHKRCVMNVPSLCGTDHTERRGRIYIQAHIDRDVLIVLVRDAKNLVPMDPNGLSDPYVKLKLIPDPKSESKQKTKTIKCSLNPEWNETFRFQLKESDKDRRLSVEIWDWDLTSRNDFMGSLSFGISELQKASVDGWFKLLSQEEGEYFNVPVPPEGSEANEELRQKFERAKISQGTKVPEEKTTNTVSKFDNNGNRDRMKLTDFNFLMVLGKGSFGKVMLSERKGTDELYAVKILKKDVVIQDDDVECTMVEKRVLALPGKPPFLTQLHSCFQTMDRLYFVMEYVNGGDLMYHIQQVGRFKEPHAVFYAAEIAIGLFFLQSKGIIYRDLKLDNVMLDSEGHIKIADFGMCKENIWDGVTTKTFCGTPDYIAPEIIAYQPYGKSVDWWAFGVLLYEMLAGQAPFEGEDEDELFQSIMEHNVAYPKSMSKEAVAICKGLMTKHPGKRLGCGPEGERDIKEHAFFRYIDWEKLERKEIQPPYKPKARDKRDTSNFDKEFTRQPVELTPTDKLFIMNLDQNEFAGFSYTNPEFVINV
Text: as §1

PKCδ = PKCδ (Homo sapiens (Human), UniProt Q05655); experiment: Radio-labeled kinase assay at the Kmapp for ATP; type: biochemical
PKCδ, sequence (Q05655 whole entry): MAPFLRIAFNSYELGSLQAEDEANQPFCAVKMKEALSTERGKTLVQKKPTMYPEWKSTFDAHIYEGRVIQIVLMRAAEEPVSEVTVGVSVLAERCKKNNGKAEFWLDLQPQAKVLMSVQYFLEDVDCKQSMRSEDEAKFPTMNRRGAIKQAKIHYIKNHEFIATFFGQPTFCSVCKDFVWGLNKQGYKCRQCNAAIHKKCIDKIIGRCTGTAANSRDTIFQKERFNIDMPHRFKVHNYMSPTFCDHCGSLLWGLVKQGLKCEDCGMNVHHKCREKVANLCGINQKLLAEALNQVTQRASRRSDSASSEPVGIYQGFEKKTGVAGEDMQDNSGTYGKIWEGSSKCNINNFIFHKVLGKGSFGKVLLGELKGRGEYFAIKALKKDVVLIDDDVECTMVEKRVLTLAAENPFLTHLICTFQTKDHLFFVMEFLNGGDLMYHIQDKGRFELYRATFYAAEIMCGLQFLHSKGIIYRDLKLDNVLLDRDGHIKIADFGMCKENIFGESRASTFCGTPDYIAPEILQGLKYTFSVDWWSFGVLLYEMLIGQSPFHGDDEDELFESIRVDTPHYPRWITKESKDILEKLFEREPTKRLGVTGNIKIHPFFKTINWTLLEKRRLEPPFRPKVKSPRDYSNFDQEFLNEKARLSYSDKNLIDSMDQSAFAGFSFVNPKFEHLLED
Text: as §1

PKCε = PKCε (Homo sapiens (Human), UniProt Q02156); experiment: Radio-labeled kinase assay at the Kmapp for ATP; type: biochemical
PKCε, sequence (Q02156 whole entry): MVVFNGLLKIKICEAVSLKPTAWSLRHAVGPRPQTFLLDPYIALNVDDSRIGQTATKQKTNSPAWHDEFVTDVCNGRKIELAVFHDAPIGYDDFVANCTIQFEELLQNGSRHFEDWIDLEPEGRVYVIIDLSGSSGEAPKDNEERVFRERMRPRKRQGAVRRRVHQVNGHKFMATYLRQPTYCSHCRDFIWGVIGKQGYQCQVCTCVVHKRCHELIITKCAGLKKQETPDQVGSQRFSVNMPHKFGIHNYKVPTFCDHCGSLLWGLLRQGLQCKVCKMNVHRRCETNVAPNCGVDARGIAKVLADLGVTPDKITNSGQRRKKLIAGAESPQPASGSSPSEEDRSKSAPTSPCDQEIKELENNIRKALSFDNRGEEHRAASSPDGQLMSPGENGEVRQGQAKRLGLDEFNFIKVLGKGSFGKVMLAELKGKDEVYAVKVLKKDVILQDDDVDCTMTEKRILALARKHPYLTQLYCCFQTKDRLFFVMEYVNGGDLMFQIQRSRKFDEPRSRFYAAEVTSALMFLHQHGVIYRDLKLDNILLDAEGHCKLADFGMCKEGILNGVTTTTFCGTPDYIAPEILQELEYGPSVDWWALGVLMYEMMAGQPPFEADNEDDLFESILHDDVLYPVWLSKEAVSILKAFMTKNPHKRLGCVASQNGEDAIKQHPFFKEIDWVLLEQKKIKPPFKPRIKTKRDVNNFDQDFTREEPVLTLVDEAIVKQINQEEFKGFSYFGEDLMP
Text: as §1

PKC isoforms = experiment: PKC class specificity from radio-labeled kinase assay; type: biochemical, human
Text: as §1

[4] = system: 20 AGC super-family kinases; experiment: Screen of 20 AGC super-family kinases at 100 μM; type: biochemical, human
[5] = system: cPKC / Erk phosphorylation in endothelial cells; experiment: cPKC activity in cell culture (Erk phosphorylation, immunoblot); type: cell-based
Description: Cells were harvested in extraction buffer containing 100 mM NaCl, 1% Triton X-100, 0.5% Sodium Deoxycholate, 0.2% SDS, 2 mM EDTA, 10 mM HEPES (pH 7.5), 1 mM sodium orthovanadate, 10 mM sodium fluoride, 10 mM sodium pyrophosphate, 1 mM benzamadine, 1 complete protease inhibitor tablet, 10 μM LR-microcystin. Following protein extraction, Western blot utilizing the NuPAGE system (Invitrogen, Carlsbad, Calif., USA) was performed. Protein content was determined using DC protein assay (BioRad, Hercules, Calif., USA) and equal amounts of protein were loaded in 4-12% Bis-Tris gradient gels. Following electrophoresis and transferring to nitrocellulose, membranes were blocked in milk with 5% Tris-buffered saline with 0.1% Tween 20. Membranes were immunoblotted using anti-Flag (Cell Signaling, Danvers, Mass., USA), anti-HA (Cell Signaling, Danvers, Mass., USA), anti-phospho ERK1/2 (Cell Signaling, Danvers, Mass., USA), anti-total ERK1/2 (Cell Signaling, Danvers, Mass., USA), anti-phospho aPKC (Cell Signaling, Danvers, Mass., USA), total PKCζ (Santa Cruz, Santa Cruz, Calif., USA), and anti-actin (Millipore, Billerica, Mass., USA) antibodies. Primary antibodies were detected by horseradish peroxidase-conjugated anti-rabbit and chemiluminescence with ECL Advance (GE Healthcare, Piscataway, N.J., USA) or anti-mouse IgG alkaline phosphatase with ECF (GE Healthcare, Piscataway, N.J., USA).

AKT in endothelial cells = experiment: AKT, downstream mediator of PI3K signaling, in endothelial cells; type: cell-based
BREC monolayer [6] = experiment: VEGF-induced retinal endothelial permeability assay (70 kDa RITC-Dextran); type: cell-based, bovine; conditions: pretreatment 30 min, 30 or 100 nM PKCζl-diCl, 30 or 300 nM PKCl-diMeO; 50 ng/ml VEGF
Description: (§2) Primary bovine retinal endothelial cells (BREC) were isolated from fresh bovine eye tissue. Human retinal endothelial cells (HREC) were from Cell Systems (Krikland, Wash., USA). Cells were grown in MCDB-131 complete media (Sigma-Aldrich, Mo., USA) containing 10% fetal bovine serum, 10 ng/ml epidermal growth factor, 200 μg/ml Endogro (Vec Technologies, Rensselaer, N.Y., USA), 90 μg/ml heparin, antibiotics and antimycotics. For experimentation, cells were grown to confluence and serum starved for 24 hours with 100 nM hydrocortisone and treated with VEGF at 50 ng/ml where indicated. All experiments were performed with cells at passage 5-8.
(§3) RECs were plated onto 0.4 μm Transwell filters (Corning Costar, Acton, Mass., USA) and grown to confluence. Following treatments, 70 kDa rhodamine β isothiocyanate-dextran (RITC-Dextran) was added to the apical chamber and samples were collected from the basolateral chamber at 30 minute intervals for 4 hours. The rate of flux of the substrate, Po, was calculated over the 4 hour time course from the following formula. Po=[FL/Δt)VA]/(FAA) where Po is in centimeters per second; FL is basolateral fluorescence; FA is apical fluorescence; Δt is change in time; A is the surface area of the filter (in square centimeters); and VA is the volume of the basolateral chamber (in cubic centimeters). […]

[7] = Solubility in aqueous environments; type: physicochemical
BREC = experiment: LIVE/Dead cell viability; conditions: 24 and 48 hours; up to 300 nM
[8] = system: human retinal endothelial primary cells (HREC) monolayers; experiment: Basal permeability of HREC monolayers; type: cell-based
Description: as §2, §3

[9] = system: occludin and ZO-1 border staining in BREC; experiment: Tight junction protein localization after VEGF (immunocytochemistry, confocal); type: cell-based, bovine; conditions: 100 nM, 30 min before 50 ng/ml VEGF for 60 min
Description: VEGF treatment of retinal endothelial cells and diabetes leads to a breakdown of the tight junction complex and internalization of tight junction proteins occludin and ZO-1. The ability of the phenyl-thiophene derivatives to prevent the VEGF-induced reduction in tight junction border staining was examined. BREC were grown to confluence on coverslips and pretreated with 100 nM PKCζ-diCl for 30 minutes prior to treatment with 50 ng/ml VEGF for 60 minutes. Cells were fixed and stained with antibodies for ZO-1 or occludin and were visualized by confocal microscopy. VEGF decreased the border staining and continuity of ZO-1 and occludin labeling at the cell border. […] This effect on the tight junction correlated with the observed attenuation of VEGF-induced permeability.

[10] = system: retinal vasculature tight junction complex (occludin); experiment: Occludin immuno-labeling of retinal flat mounts after intra-vitreal VEGF; conditions: intra-vitreal co-injection with VEGF

Structure (SMILES): CCOC(=O)c1c(NC(C)=O)sc(C(C)=O)c1-c1ccc(Cl)cc1 [APOGEE B]
pIC50 (aPKCζ [1]): 4.15

Structure (SMILES): COc1ccc(-c2csc(N)c2C#N)cc1OC [Compound 227-076-001]
pIC50 (aPKCζ [2]): 5.15

Structure (SMILES): COc1ccc(-c2csc(N)c2C(=O)OCc2ccccc2)cc1OC [Compound 252-036-001]
pEC50 (HEK293pNF-kBluc cells): 9.00
pIC50 (aPKCζ [2]): 5.22

Structure (SMILES): COc1ccc(-c2csc(N)c2C(=O)OCc2ccccc2F)cc1OC [Compound 317-052-001]
pIC50 (aPKCζ [2]): 5.15

Structure (SMILES): CCOC(=O)c1c(-c2ccc(NC(C)=O)cc2)csc1N [Compound 317-056-002]
pIC50 (aPKCζ [2]): 5.22

Structure (SMILES): CCOC(=O)c1c(-c2ccc(N(C)C)cc2)csc1N [Compound 317-080-001]
pEC50 (HEK293pNF-kBluc cells): 9.00

Structure (SMILES): COc1cccc(COC(=O)c2c(-c3ccc(C(N)=O)cc3)csc2N)c1 [Compound 317-120-001]
pIC50 (aPKCζ [2]): 5.22

Structure (SMILES): COc1ccc(-c2csc(N)c2C(=O)OC(C)C)cc1OC [PKCl-diMeO]
pIC50 (PKCα): 3.55
pIC50 (PKCβ): 3.91
pIC50 (PKCδ): 3.83
pIC50 (PKCε): < 4.00
specificity towards atypical PKC isoforms compared to the classical PKCs (α, β) (PKC isoforms): 25-50 fold
specificity towards atypical PKC isoforms compared to the novel class (δ,ε) (PKC isoforms): 25 fold
inhibitory activity towards other AGC kinases [4]: limited inhibitory activity
cPKC activity in cell culture [5]: did not inhibit cPKC activity
Erk phosphorylation ([5]; endothelial cells): unaffected
AKT signaling (AKT in endothelial cells): unaffected
VEGF-induced permeability (BREC monolayer [6]): dose-dependently blocked
TNF/VEGF-induction of BREC permeability (BREC monolayer [3]): significantly reduce
pEC50 (BREC monolayer [3]; Bos taurus): 9.00
pEC50 (HEK293pNF-kBluc cells; Homo sapiens): 8.52
solubility in aqueous environments [7]: improved solubility in aqueous environments
BREC viability (BREC): no evidence of cell death

Structure (SMILES): CC(C)OC(=O)c1c(-c2ccc(Cl)c(Cl)c2)csc1N [PKCζl-diCl, isopropyl 2-amino-4-(3,4-dichlorophenyl)thiophene-3-carboxylate]
specificity towards atypical PKC isoforms compared to the classical PKCs (α, β) (PKC isoforms): 5-10 fold
specificity towards atypical PKC isoforms compared to the novel class (δ,ε) (PKC isoforms): 10-20 fold
VEGF-induced permeability (BREC monolayer [6]): dose-dependently blocked
basal permeability of HREC monolayers [8]: reducing permeability was also observed
VEGF-induced redistribution of occludin and ZO-1 [9]: blocked the VEGF-induced redistribution of occludin and ZO-1 proteins
occludin border staining in retinal vessels [10]: occludin border staining was preserved

The remaining molecules from weak to strong by pIC50 (aPKCζ [2]), led by results:

pIC50 (aPKCζ [2]): 5.30
Structure (SMILES): CC(C)NC(=O)c1c(-c2ccc(Cl)c(Cl)c2)csc1N [Compound 194-094-008]

pIC50 (aPKCζ [2]): 5.30
Structure (SMILES): CCNC(=O)c1c(-c2ccc(Cl)c(Cl)c2)csc1N [Compound 194-094-009]

pIC50 (aPKCζ [2]): 5.30
Structure (SMILES): COc1cccc(COC(=O)c2c(-c3ccc(OC)c(OC)c3)csc2N)c1 [Compound 317-052-004]
pEC50 (HEK293pNF-kBluc cells): 8.70

pIC50 (aPKCζ [2]): 5.40
Structure (SMILES): COc1ccc(-c2csc(N)c2C(=O)N2CCOCC2)cc1OC [Compound 194-074-005]

pIC50 (aPKCζ [2]): 5.40
Structure (SMILES): CCNC(=O)c1c(-c2ccc(OC)c(OC)c2)csc1N [Compound 194-074-008]

pIC50 (aPKCζ [2]): 5.40
Structure (SMILES): CCOC(=O)c1c(-c2ccc(OC)cc2F)csc1N [Compound 317-054-001]
pEC50 (HEK293pNF-kBluc cells): 8.00

pIC50 (aPKCζ [2]): 5.52
Structure (SMILES): Nc1scc(-c2ccc(Cl)c(Cl)c2)c1C(=O)N1CCOCC1 [Compound 194-094-003]

TNF/VEGF-induction of BREC permeability (BREC monolayer [3]): significantly reduce
pEC50 (BREC monolayer [3]): 7.70
pIC50 (aPKCζ [2]): 5.70
Structure (SMILES): CCOC(=O)c1c(-c2ccc3c(c2)OCO3)csc1N [Compound 268-020-002]
pEC50 (HEK293pNF-kBluc cells): 8.52

pIC50 (aPKCζ [2]): 5.70
Structure (SMILES): CCOC(=O)c1c(-c2ccc(N)cc2)csc1N [Compound 317-094-001]
pEC50 (HEK293pNF-kBluc cells): 9.00
